Source: article PMC4010551, “Targeting Staphylococcus aureus Quorum Sensing with Nonpeptidic Small Molecule Inhibitors” (Journal of Medicinal Chemistry, 2014)
pIC50, pKd: −log10 of the molar value. Values after ≈ are worked out from the molar mass of the structure shown. “Also recorded” adds a separate entry of the source. Like-named read-outs stand apart in the source and are kept apart here.

Columns and labels:
Staphylococcus aureus = assay: Antibacterial activity (MIC in MH broth); type: cell-based; conditions: for MIC: Staphylococcus aureus; for inhibition of bacterial growth (result in words): at 100 μM
AgrC-1 = type: cell-based, Staphylococcus aureus; conditions: for competition with AIP-1 for cognate AgrC: blaZ-based agrP3 reporter
S. aureus membranes = target: S. aureus membranes; parameters: species or system Staphylococcus aureus; conditions: read-out: Kd (membrane binding)
agr = assay: microbe, parasite or virus in culture; type: cell-based, Staphylococcus aureus; conditions: for pIC50: Staphylococcus aureus, read-out: agr IC50; for difference between MIC and agr IC50: MIC relative to agr IC50; for effect of double bond in acyl chain on activity: S18 cf. 15, S19 cf. 16
C. difficile = system: C. difficile; parameters: method as in PMID 19917748; conditions: cited from earlier work
P. aeruginosa = system: P. aeruginosa; parameters: method as in PMID 21502732; conditions: cited from earlier work
S. aureus USA300 = type: cell-based, Staphylococcus aureus; conditions: 4 at up to 100 μM
[1] = parameters: method as in PMID 15623555, PMID 22178671; conditions: cited from earlier work
S. aureus strain Newman = conditions: mouse, in vivo
[2] = system: adherence of S. aureus to human nasal squamous cells; type: cell-based, Staphylococcus aureus

Compound: CCCCCCCCCC(=O)CC(=O)N[C@H]1CCOC1=O [Compound 1, N-(3-oxododecanoyl)-L-homoserine lactone]
- MIC (Staphylococcus aureus; S. aureus, MH broth, Table 1, read-out: MIC): 100 µM (≈ 29.7 µg/mL)
- competition with AIP-1 for cognate AgrC (AgrC-1): do not compete
- pKd (S. aureus membranes): 3.57

Compound: CCCCCCCCCC(=O)CC(=O)N[C@@H]1CCOC1=O [Compound 2]
- fold less active in agr inhibition than L-isomer 1 (agr; D-isomer 2 versus 1): approximately 2 fold

Compound: CCC/C(O)=C1/C(=O)N[C@@H](CCO)C1=O [Compound 3]
- MIC (Staphylococcus aureus): > 100 µM
- inhibition of bacterial growth (result in words) (Staphylococcus aureus): did not inhibit growth
- killing of C. difficile (C. difficile): not C. difficile
- pIC50 (agr): < 4.00
- killing of P. aeruginosa (P. aeruginosa): kill P. aeruginosa

Compound: CCCCCCC/C(O)=C1/C(=O)N[C@@H](CCO)C1=O [Compound 4]
- staphylococcal growth (S. aureus USA300): without affecting staphylococcal growth; also recorded: without inhibiting the growth
- MIC (Staphylococcus aureus): > 100 µM
- inhibition of bacterial growth (result in words) (Staphylococcus aureus): did not inhibit growth

Compound: CCCCCCCCC/C(O)=C1/C(=O)N[C@@H](CCO)C1=O [Compound 5, (S)-3-Decanoyl-5-(2-hydroxyethyl)tetramic Acid]
- competition with AIP-1 for cognate AgrC (AgrC-1): do not compete
- decrease of maximum level of activation by AIP-1 (AgrC-1; increasing concentrations of 5 from 0 to 100 μM): over 10 fold
- ferric ion chelator (result in words) [1]: ferric ion chelators
- activity in murine infection model (S. aureus strain Newman): inactive
- attachment of S. aureus to human squamous cells [2]: substantially reduced attachment
- pKd (S. aureus membranes): 3.65

Compound: CCCCCCCCCC/C(O)=C1/C(=O)N[C@@H](CCO)C1=O [Compound 6]
- difference between MIC and agr IC50 (agr): 5 fold

Compound: CCCCCCCCCCC/C(O)=C1/C(=O)N[C@@H](CCO)C1=O [Compound 7, (S)-3-Dodecanoyl-5-(2-hydroxyethyl)tetramic Acid]
- pKd (S. aureus membranes): 4.64

Compound: CCCCCCCCCCCCC/C(O)=C1/C(=O)N[C@@H](CCO)C1=O [Compound 8]
- fold lower MIC (Staphylococcus aureus; versus 5 (MIC 100 μM)): 8 fold
- difference between MIC and agr IC50 (agr): little different
- pKd (S. aureus membranes): 5.70

Compound: CCCCCCCCC/C(O)=C1/C(=O)N[C@H](CCO)C1=O [Compound 9]
- MIC (Staphylococcus aureus): > 100 µM
- fold improvement of agr inhibitory activity (agr; (R)-9 versus (S)-5): 1.5 fold

Compound: O=C1N[C@@H](CCO)C(=O)/C1=C(/O)CCCC1CCCCC1 [Compound 10]
- MIC (Staphylococcus aureus): > 100 µM
- pIC50 (agr): < 4.00

Compound: O=C1N[C@@H](CCO)C(=O)/C1=C(/O)Cc1ccc([N+](=O)[O-])cc1 [Compound 11]
- MIC (Staphylococcus aureus): > 100 µM
- pIC50 (agr): < 4.00

Compound: CCCCCCCCC/C(O)=C1/C(=O)N[C@@H](C)C1=O [Compound 12, (S)-3-Decanoyl-5-methyltetramic acid]
- inhibited agr (result in words) (agr): enhanced agr inhibitory activity

Compound: CCCCCCCCC/C(O)=C1\C(=O)CNC1=O [Compound 13, 3-decanoyltetramic acid]
- inhibited agr (result in words) (agr): enhanced agr inhibitory activity

Compound: CCCCCC(=O)C1=C(O)COC1=O [Compound 14]
- MIC (Staphylococcus aureus): > 100 µM

Compound: CCCCCCCCCC(=O)C1=C(O)COC1=O [Compound 15]
- pKd (S. aureus membranes): 3.59

Compound: CCCCCCCCCCCC(=O)C1=C(O)COC1=O [Compound 16, 3-Dodecanoyltetronic Acid]
- fold more potent in preventing AIP-mediated activation of AgrC (AgrC-1; 16 versus 1 and 5): at least 5 fold
- competition with AIP-1 for cognate AgrC (AgrC-1): do not compete
- pKd (S. aureus membranes): 4.14

Compound: CCCCCCCCCCCCCCCC(=O)C1=C(O)COC1=O [Compound 18]
- MIC (Staphylococcus aureus): > 100 µM

Compound: CCCCCCCCCC(=O)CC(=O)N[C@@H](CCO)C(=O)O [Compound S1, N-(3-oxododecanoyl)-L-homoserine]
- MIC (Staphylococcus aureus): > 100 µM
- inhibited agr (result in words) (agr): neither
- pIC50 (agr): < 4.00

Compound: CCCCCCCCCC(=O)CC(N)=O [Compound S2, 3-oxododecanamide]
- MIC (Staphylococcus aureus): > 100 µM
- inhibited agr (result in words) (agr): neither
- pIC50 (agr): < 4.00

Compound: CCCCCCCCCC(=O)CC(=O)Nc1nccs1 [Compound S3]
- MIC (Staphylococcus aureus): > 100 µM
- pIC50 (agr): < 4.00

Compound: CCCCCCCCCC(=O)CC(=O)N[C@H]1CCSC1=O [Compound S4]
- MIC (Staphylococcus aureus): > 100 µM
- pIC50 (agr): < 4.00

Compound: CCCCCCCCCC(=O)CC(=O)N[C@H]1CCNC1=O [Compound S5]
- MIC (Staphylococcus aureus): > 100 µM
- pIC50 (agr): < 4.00

Compound: CCCCCCCCCC(=O)CC(=O)N[C@H]1CCC(=O)NC1=O [Compound S6]
- MIC (Staphylococcus aureus): > 100 µM
- pIC50 (agr): < 4.00

Compound: CCCCCCCCCC(=O)CC(=O)N[C@H]1CC(=O)NC1=O [Compound S7]
- MIC (Staphylococcus aureus): > 100 µM
- pIC50 (agr): < 4.00

Compound: CCCCCCCCCCCC(=O)N[C@H]1CCOC1=O [Compound S8]
- MIC (Staphylococcus aureus): > 100 µM
- pIC50 (agr): < 4.00

Compound: CCCCCCCCCC(O)CC(=O)N[C@H]1CCOC1=O (some centres unmarked) [Compound S9]
- MIC (Staphylococcus aureus): > 100 µM
- pIC50 (agr): < 4.00

Compound: CCCCCCCCNC(=O)CC(=O)N[C@H]1CCOC1=O [Compound S10]
- MIC (Staphylococcus aureus): > 100 µM
- pIC50 (agr): < 4.00

Compound: CCCCCCCCN(C)C(=O)CC(=O)N[C@H]1CCOC1=O [Compound S11]
- MIC (Staphylococcus aureus): > 100 µM
- pIC50 (agr): < 4.00

Compound: CCCCCCCCOC(=O)CC(=O)N[C@H]1CCOC1=O [Compound S12]
- MIC (Staphylococcus aureus): > 100 µM
- pIC50 (agr): < 4.00

Compound: CCCCCCCCCC(=O)CC(=O)O[C@H]1CCOC1=O [Compound S13]
- MIC (Staphylococcus aureus; S. aureus, Table S1, read-out: MIC): > 100 µM
- pIC50 (agr): < 4.00

Compound: CCCCC/C=C/CCC(=O)CC(=O)N[C@H]1CCOC1=O [Compound S14]
- MIC (Staphylococcus aureus): > 100 µM
- pIC50 (agr): < 4.00

Compound: O=C(CCCc1ccccc1)CC(=O)N[C@H]1CCOC1=O [Compound S15]
- MIC (Staphylococcus aureus): > 100 µM
- pIC50 (agr): < 4.00

Compound: O=C(CCCC1CCCCC1)CC(=O)N[C@H]1CCOC1=O [Compound S16]
- MIC (Staphylococcus aureus): > 100 µM
- pIC50 (agr): < 4.00

Compound: CC(C)CCCCCCC(=O)C1=C(O)COC1=O [Compound S17]
- MIC (Staphylococcus aureus): > 100 µM
- pIC50 (agr): < 4.00

Compound: CCCCC/C=C/CCC(=O)C1=C(O)COC1=O [Compound S18]
- effect of double bond in acyl chain on activity (agr): little effect on activity

Compound: CCCCCC/C=C\CCCC(=O)C1=C(O)COC1=O [Compound S19]
- MIC (Staphylococcus aureus): > 100 µM
- effect of double bond in acyl chain on activity (agr): almost abolished

Compound: O=C(Cc1ccc([N+](=O)[O-])cc1)C1=C(O)COC1=O [Compound S20]
- MIC (Staphylococcus aureus): > 100 µM
- pIC50 (agr): < 4.00

Compound: O=C(Cc1ccc(Br)cc1)C1=C(O)COC1=O [Compound S21]
- MIC (Staphylococcus aureus): > 100 µM
- pIC50 (agr): < 4.00

Compound: O=C(COc1ccc(Br)cc1)C1=C(O)COC1=O [Compound S22]
- MIC (Staphylococcus aureus): > 100 µM
- pIC50 (agr): < 4.00

Compound: CCCC(=O)CC(=O)C1=C(O)COC1=O [Compound S23]
- MIC (Staphylococcus aureus): > 100 µM
- pIC50 (agr): < 4.00

Compound: CCCCCCCCCC(=O)CC(=O)C1=C(O)COC1=O [Compound S24]
- MIC (Staphylococcus aureus): > 100 µM
- pIC50 (agr): < 4.00
